Laboratory results: ChEMBL document CHEMBL4346704, “Novel symmetric bis-benzimidazoles: Synthesis, DNA/RNA binding and antitrypanosomal activity” (Eur J Med Chem, 2019)
The source made the active and inactive calls. The rule behind the calls is not given here.

Columns and labels:
[1] = tested on: Calf thymus DNA; assay: Binding affinity to calf thymus DNA by UV-vis spectrophotometric method; assay type: nucleic-acid assay; conditions: Bos taurus
[2] = tested on: Poly(dA-dU)oligonucleotide; assay: Binding affinity to polyA-polyU dsRNA (unknown origin) assessed as change in melting temperature at 0.5 ratio of compound to RNA by spectrophotometric analysis; assay type: nucleic-acid assay
[3] = tested on: Calf thymus DNA; assay: Binding affinity to calf thymus DNA assessed as hypochromic effect by UV-vis spectrophotometric method relative to control; assay type: nucleic-acid assay; design: concentration or dose not given beside the values; conditions: Bos taurus
[4] = Binding affinity to polyA-polyU dsRNA (unknown origin) assessed as change in melting temperature at 0.1 ratio of compound to RNA by spectrophotometric analysis; assay type: nucleic-acid assay
[5] = tested on: Calf thymus DNA; assay: Ratio of compound concentration to polynucleotide phosphate concentration for binding affinity to calf thymus DNA; assay type: nucleic-acid assay; conditions: Bos taurus
[6] = tested on: Poly(dA-dU)oligonucleotide; assay: Binding affinity to polyA-polyU dsRNA (unknown origin) assessed as change in melting temperature at 0.3 ratio of compound to RNA by spectrophotometric analysis; assay type: nucleic-acid assay
[7] = tested on: Calf thymus DNA; assay: Binding affinity to calf thymus DNA assessed as conformational change by circular dichroism analysis; assay type: nucleic-acid assay; conditions: Bos taurus
[8] = tested on: Calf thymus DNA; assay: Binding affinity to calf thymus DNA assessed as change in melting temperature at compound to calf thymus DNA polynucleotide ratio of 0.1 by spectrophotometric analysis; assay type: nucleic-acid assay; conditions: Bos taurus
[9] = tested on: L6; assay: Cytotoxicity against rat L6 cells incubated for 6 days by resazurin based fluorescence assay; assay type: cell-based; conditions: L6, 144 h
[10] = tested on: Trypanosoma brucei; assay: Antitrypanosomal activity against Trypanosoma brucei 221 incubated for 48 hrs by resazurin based fluorescence assay; assay type: functional, organism-based; conditions: Trypanosoma brucei, 221, 48 h
[11] = tested on: Calf thymus DNA; assay: Binding affinity to calf thymus DNA assessed as change in melting temperature at compound to calf thymus DNA polynucleotide ratio of 0.3 by spectrophotometric analysis; assay type: nucleic-acid assay; conditions: Bos taurus
[12] = tested on: Calf thymus DNA; assay: Binding affinity to calf thymus DNA assessed as change in melting temperature at compound to calf thymus DNA polynucleotide ratio of 0.5 by spectrophotometric analysis; assay type: nucleic-acid assay; conditions: Bos taurus
[13] = tested on: Poly(dA-dU)oligonucleotide; assay: Binding affinity to polyA-polyU dsRNA (unknown origin) assessed as conformational change by circular dichroism analysis; assay type: nucleic-acid assay
[14] = Ratio of compound concentration to polynucleotide phosphate concentration for binding affinity to polyA-polyU dsRNA (unknown origin); assay type: nucleic-acid assay
[15] = tested on: Poly(dA-dU)oligonucleotide; assay: (§1) Binding affinity to polyA-polyU dsRNA (unknown origin) assessed as binding constant by UV-vis spectrophotometric method; assay type: nucleic-acid assay
[16] = Binding affinity to polyA-polyU dsRNA (unknown origin) assessed as hypochromic effect by UV-vis spectrophotometric method relative to control; assay type: nucleic-acid assay; design: concentration or dose not given beside the values
[17] = as §1; assay type: nucleic-acid assay

Compound	log Ks [1]	ΔTm [2] [°C]	Activity [3] [%]	ΔTm [4] [°C]	Ratio [5]	ΔTm [6] [°C]	Activity [7]	ΔTm [8] [°C]	IC50 [10] [µM]	IC90 [10] [µM]	ΔTm [11] [°C]	ΔTm [12] [°C]	Activity [13]	Ratio [14]	log Ks [15]	Activity [16] [%]	Activity [17]	Activity [1]	IC50 [9] [µM]
Cl.Cl.c1cc2[nH]c(-c3ccc(Cn4cc(CCCc5cn(Cc6ccc(-c7nc8cc(C9=NCCN9)ccc8[nH]7)o6)nn5)nn4)o3)nc2cc1C1=NCCN1	7.62	2.7	17	1.6	0.05	1.8	Active	13.5	3.9	5.4	13.8	19.1	Active	0.42	6.83	32			216
Cl.Cl.c1cc(OCc2cn(Cc3ccc(-c4nc5cc(C6=NCCN6)ccc5[nH]4)o3)nn2)ccc1OCc1cn(Cc2ccc(-c3nc4cc(C5=NCCN5)ccc4[nH]3)o2)nn1		0	6	2.7		2.2	Active	8.2	0.75	1.5	8.9	0	Active			11	Active	Active	60.7
Cl.Cl.N=C(N)c1ccc2[nH]c(-c3ccc(Cn4cc(COc5ccc(OCc6cn(Cc7ccc(-c8nc9cc(C(=N)N)ccc9[nH]8)o7)nn6)cc5)nn4)o3)nc2c1		0	9	0		0	Active	9.5	1.3	5.6	10.7	12.3	Active			7	Active	Active	39.6
CC(C)NC(=N)c1ccc2[nH]c(-c3ccc(Cn4cc(COc5ccc(OCc6cn(Cc7ccc(-c8nc9cc(C(=N)NC(C)C)ccc9[nH]8)o7)nn6)cc5)nn4)o3)nc2c1.Cl.Cl		0	23	0		0	Active	8	1.5	2.8	11	12.2	Active			11	Active	Active	121

Now from value to compound, other results behind:

log Ks [1]	ΔTm [2] [°C]	Activity [3] [%]	ΔTm [4] [°C]	Ratio [5]	ΔTm [6] [°C]	Activity [7]	ΔTm [8] [°C]	IC50 [10] [µM]	IC90 [10] [µM]	ΔTm [11] [°C]	ΔTm [12] [°C]	Activity [13]	Ratio [14]	log Ks [15]	Activity [16] [%]	Activity [17]	Activity [1]	Compound	IC50 [9] [µM]
4 to 5		16		0.21	0	inactive		> 15		0					23	Active		Fc1ccc2[nH]c(-c3ccc(Cn4cc(COc5ccc(-c6ccc(OCc7cn(Cc8ccc(-c9nc%10cc(F)ccc%10[nH]9)o8)nn7)cc6)cc5)nn4)o3)nc2c1	
6.23		28	3.5	0.89	4	Active	12.4	3.8	6	12.7	12.5	Active	0.85	7.17	22			Cl.Cl.c1cc2[nH]c(-c3ccc(Cn4cc(COCc5cn(Cc6ccc(-c7nc8cc(C9=NCCN9)ccc8[nH]7)o6)nn5)nn4)o3)nc2cc1C1=NCCN1	122
